This note sets out measurements from US9347077B2, “Over-expression of a putative oxidoreductase (UcpA) for increasing furfural or 5-hydroxymethylfurfural tolerance” (UNIVERSITY OF FLORIDA RESEARCH FOUNDATION, INCORPORATED, priority 2011, dated 2016).

Each structure is given as a SMILES string. Where only a bound is given, the exact number is not on record here.

What all share (assay): pH-controlled batch fermentation (10% xylose)
What all share (format): cell-based, Escherichia coli

The subject of one experiment is LY180/pLOI4856. How it is done:
(§1) Seed pre-cultures of strains containing pTrc99A or pLOI4856 were grown from plates using sealed culture tubes containing AM1 medium (20 g liter^−1 xylose, 12.5 mg liter^−1 ampicillin). After incubation for 16 h, pre-inocula were diluted into 500-ml fermentation vessels containing 300 ml AM1 media (100 g liter^−1 xylose, 1 mM betaine, 0.1 mM IPTG, 12.5 μg ml^−1 ampicillin) to provide a starting density of 13.2 mg dcw. After 24 h growth, these seed cultures were used to provide a starting inoculum for batch fermentations (AM1 medium, 100 g liter^−1 xylose, 12.5 μg ml^−1 ampicillin, 0.1 mM IPTG, 13.2 mg dcw initial density, and furfural). Fermentations were maintained at pH 6.5 […] by the automatic addition of KOH as previously described (Miller et al., 2009b). Ethanol was measured using an Agilent 6890N gas chromatograph (Palo Alto, Calif.) equipped with a flame ionization detector and a 15-meter HP-Plot Q Megabore column. Furfural concentration was monitored using a Beckman DU spectrophotometer (Martinez et al., 2000b; Miller et al., 2009b). Organic acids and xylose were measured by high-performance liquid chromatography (Miller et al., 2009b).
(§2) The effects of UcpA on growth, ethanol production, and furfural metabolism were investigated in more detail during pH-controlled batch fermentation in mineral salt medium (AM1 medium containing 100 g xylose liter^−1, 0.1 mM IPTG and 12.5 μg ml^−1 ampicillin for all cultures harboring plasmids; furfural as indicated; inoculum of 22 mg dcw liter^−1) as previously described (Wang et al., 2011b). Ethanol (retention time 1.1 min) and furfuryl alcohol (retention time 6.2 min) were measured using an Agilent 6890N gas chromatograph (Santa Clara, Calif.) (Miller et al., 2009b). Furoic acid (retention time of 51.2 min) and sugars were measured by high-performance liquid chromatography (Geddes et al., 2010a). Furfural was measured using a Beckman-Coulter DU 800 spectrophotometer (Martinez et al., 2000a).

Another experiment deals with LY180/pTrc99A. How it is done:
as §1, §2

A further experiment relates to XW118 (LY180 ucpA::kan). How it is done:
as §2

[1] abbreviates: 15 mM furfural, batch fermentation of xylose to ethanol.

With `O=Cc1ccco1` [furfural], in the experiment with LY180/pLOI4856 (10 mM furfural), the “Cell Yield” value is 3.6 ± 0.1 g/L, the “Furfural-dependent slow growth Duration” value stood at 22 ± 2 h, the “Furfural-dependent slow growth μ” value was found to be 0.09 ± 0.01 h⁻¹ and the “μ Max” value stood at 0.14 ± 0.01 h⁻¹. In the experiment with LY180/pLOI4856 (15 mM furfural, 100 g liter^−1 xylose), the Final ethanol yield entry is on record as “approximately 90 % of the theoretical maximum”. Also, the “Growth lag in the presence of furfural” value with LY180/pLOI4856 (setting [1]) is 24 h. In addition, in the experiment with LY180/pTrc99A (10 mM furfural), the “Cell Yield” value was 0.06 ± 0.01 g/L, the “Furfural-dependent slow growth Duration” value is more than 72 h, the “Furfural-dependent slow growth μ” value is less than 0.04 h⁻¹ and the “μ Max” value was less than 0.04 h⁻¹. In addition, the “Growth in the presence of furfural” value in the experiment with LY180/pTrc99A (setting [1]) is listed as “unable to grow”. In the experiment with XW118 (LY180 ucpA::kan) (8 mM furfural), the “Cell Yield” value was 4.0 ± 0.1 g/L, the “Furfural-dependent slow growth Duration” value is on record as 55 ± 2 h, the “Furfural-dependent slow growth μ” value worked out at 0.01 ± 0.01 h⁻¹ and the “μ Max” value was 0.14 ± 0.01 h⁻¹. Further, in the experiment on XW118 (LY180 ucpA::kan) (10 mM furfural), the “Cell Yield” value was 0.04 ± 0.01 g/L, the “Furfural-dependent slow growth Duration” value is recorded as more than 72 h, the “Furfural-dependent slow growth μ” value is less than 0.04 h⁻¹ and the “μ Max” value is less than 0.04 h⁻¹.
